Test results as given in US10966426B2, “Herbicidal compositions comprising phenylpyrimidines” (BASF SE, priority 2016, dated 2021).
Values joined by “and” are separate entries in the source; they are usually repeats but may differ in a detail not shown here. Identical values can stand only once.

How the values were obtained:
Format in all cases: in vivo
Avena fatua [1] = assay: greenhouse post-emergence treatment, AVEFA; settings: AVEFA
Summary of the method: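 Seeds sown per species in loamy sand substrate (about 3.0% humus); some raised separately and transplanted shortly before treatment. Treatments applied in water post-emergence, plants held at 10-25° C. or 20-35° C. by species, then scored after 2 to 4 weeks, where 100 means total kill and 0 no damage.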

Matricaria chamomilla = assay: greenhouse post-emergence treatment, MATCH; settings: MATCH
Summary of the method: (§1)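 Seeds sown per species in pots of loamy sand; seedlings either grown in place or transplanted days before treatment. Post-emergence spray of water-based liquor at 3–15 cm height. Injury rated 0–100 over 2 to 4 weeks.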

Ambrosia elatior = assay: greenhouse pre-emergence treatment, AMBEL; settings: AMBEL
Summary of the method: (§2)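 Seeds were sown per species in pots of loamy sand with about 3.0% humus, sprayed with the aqueous spray liquor directly after sowing, watered and hooded until rooted, then kept at 10-25° C. or 20-35° C. for 2 to 4 weeks. Damage was scored 0 (none) to 100 (no emergence/complete destruction).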

Avena fatua [2] = assay: greenhouse pre-emergence treatment, AVEFA; settings: AVEFA
Summary of the method: as §2

Papaver rhoeas = assay: greenhouse post-emergence treatment, PAPRH; settings: PAPRH
Summary of the method: as §1

[3] = Ex. 5 solo, 62.5 gai/ha, 21 DAT
[4] = Ex. 5 solo, 62.5 gai/ha, 20 DAT

O=C(O)c1nc(C2CC2)ncc1-c1ccccc1Cl [Ex. 5]
% activity, solo application (Avena fatua [1]; 125 gai/ha, 20 DAT, Table X4): 75%
% activity, solo application (Avena fatua [1]; 125 gai/ha, 20 DAT, Table X5): 70%
% activity, solo application (Avena fatua [1]; 250 gai/ha, 20 DAT, Table X5): 75%
% activity (Avena fatua [1]; 20 DAT, solo Ex. 5 125 gai/ha): 85%
% activity (Avena fatua [1]; 20 DAT, solo Ex. 5 250 gai/ha): 85%
% activity (Avena fatua [1]; solo Ex. 5 62.5 gai/ha, 20 DAT): 68%
% activity (Avena fatua [1]; solo Ex. 5 62.5 gai/ha, 20 DAT, 2nd series of rows): 75%
% activity (Avena fatua [1]; solo Ex. 5 125 gai/ha, 20 DAT): 70%
% activity (Avena fatua [1]; solo Ex. 5 250 gai/ha, 20 DAT): 75% and 70%
% activity (Avena fatua [1]; solo Ex. 5 500 gai/ha, 20 DAT): 75%
% activity (Avena fatua [1]; [3]): 80%
% activity (Avena fatua [1]; Ex. 5 solo, 125 gai/ha, 21 DAT): 80%
% activity (Avena fatua [1]; Ex. 5 solo, 250 gai/ha, 21 DAT): 85%
% activity (Avena fatua [1]; Table X12, 20 DAT, solo Ex. 5 31.25 gai/ha): 70%
% activity (Avena fatua [1]; Table X12, 20 DAT, solo Ex. 5 62.5 gai/ha): 75% and 80%
% activity (Avena fatua [1]; Table X12, 20 DAT, solo Ex. 5 125 gai/ha): 85%
% activity (Avena fatua [1]; Table X12, 20 DAT, solo Ex. 5 250 gai/ha): 90%
% activity (Avena fatua [1]; solo, 62.5 gai/ha, 20 DAT): 70% and 55%
% activity (Avena fatua [1]; solo, 125 gai/ha, 20 DAT): 75% and 80% and 60%
% activity (Avena fatua [1]; solo, 250 gai/ha, 20 DAT): 80%
% activity, solo application (Matricaria chamomilla; 62.5 gai/ha, 20 DAT, Table X3): 30%
% activity, solo application (Matricaria chamomilla; 125 gai/ha, 20 DAT, Table X3): 30%
% activity, solo application (Matricaria chamomilla; 125 gai/ha, 20 DAT, Table X4): 40%
% activity, solo application (Matricaria chamomilla; 125 gai/ha, 20 DAT, Table X5): 10%
% activity, solo application (Matricaria chamomilla; 125 gai/ha, 20 DAT, Table X7): 30%
% activity, solo application (Matricaria chamomilla; 250 gai/ha, 20 DAT, Table X3): 70%
% activity, solo application (Matricaria chamomilla; 250 gai/ha, 20 DAT, Table X4): 40%
% activity, solo application (Matricaria chamomilla; 250 gai/ha, 20 DAT, Table X5): 10%
% activity (Matricaria chamomilla; [4]): 40%
% activity (Matricaria chamomilla; [3]): 30%
% activity (Matricaria chamomilla; Ex. 5 solo, 125 gai/ha, 21 DAT): 30%
% activity (Matricaria chamomilla; Ex. 5 solo, 250 gai/ha, 21 DAT): 60%
% activity (Matricaria chamomilla; 20 DAT, solo Ex. 5 125 gai/ha): 40%
% activity (Matricaria chamomilla; 20 DAT, solo Ex. 5 250 gai/ha): 30%
% activity (Matricaria chamomilla; 20 DAT, solo Ex. 5 250 gai/ha (Table X66)): 30%
% activity (Matricaria chamomilla; 21 DAT, solo Ex. 5 125 gai/ha): 30%
% activity (Matricaria chamomilla; solo Ex. 5 62.5 gai/ha, 20 DAT): 10% and 0%
% activity (Matricaria chamomilla; solo Ex. 5 250 gai/ha, 21 DAT): 30%
% activity (Matricaria chamomilla; solo, 62.5 gai/ha, 20 DAT): 20%
% activity (Matricaria chamomilla; solo, 125 gai/ha, 20 DAT): 40% and 20%
% activity (Matricaria chamomilla; solo, 250 gai/ha, 20 DAT): 40% and 45%
% activity, solo application (Ambrosia elatior; 31.25 gai/ha, 20 DAT, Table X1): 30%
% activity, solo application (Ambrosia elatior; 62.5 gai/ha, 20 DAT, Table X1): 45%
% activity, solo application (Ambrosia elatior; 62.5 gai/ha, 20 DAT, Table X2): 0%
% activity, solo application (Ambrosia elatior; 62.5 gai/ha, 20 DAT, Table X6): 0%
% activity, solo application (Ambrosia elatior; 250 gai/ha, 20 DAT, Table X1): 98%
% activity (Ambrosia elatior; 20 DAT, solo Ex. 5 31.25 gai/ha): 10%
% activity (Ambrosia elatior; 20 DAT, solo Ex. 5 31.25 gai/ha (Table X70)): 20%
% activity (Ambrosia elatior; 20 DAT, solo Ex. 5 62.5 gai/ha): 70%
% activity (Ambrosia elatior; 20 DAT, solo Ex. 5 125 gai/ha): 85%
% activity (Ambrosia elatior; [4]): 70%
% activity (Ambrosia elatior; Table X10, 20 DAT, solo Ex. 5 31.25 gai/ha): 30%
% activity (Ambrosia elatior; Table X10, 20 DAT, solo Ex. 5 62.5 gai/ha): 45%
% activity (Ambrosia elatior; Table X11, 20 DAT, solo Ex. 5 62.5 gai/ha): 45%
% activity (Ambrosia elatior; solo, 62.5 gai/ha, 20 DAT): 70%
% activity (Ambrosia elatior; solo, 125 gai/ha, 21 DAT): 70%
% activity, solo application (Avena fatua [2]; 250 gai/ha, 20 DAT, Table X1): 90%
% activity (Avena fatua [2]; 20 DAT, solo Ex. 5 62.5 gai/ha): 75%
% activity (Avena fatua [2]; solo Ex. 5 125 gai/ha, 20 DAT): 90%
% activity (Avena fatua [2]; [4]): 75%
% activity (Avena fatua [2]; Ex. 5 solo, 125 gai/ha, 20 DAT): 90%
% activity (Avena fatua [2]; Table X9, 21 DAT, solo Ex. 5 250 gai/ha): 90%
% activity (Avena fatua [2]; Table X13, 20 DAT, solo Ex. 5 31.25 gai/ha): 65%
% activity (Avena fatua [2]; Table X13, 20 DAT, solo Ex. 5 62.5 gai/ha): 80%
% activity (Avena fatua [2]; Table X13, 20 DAT, solo Ex. 5 125 gai/ha): 85%
% activity, solo application (Papaver rhoeas; 62.5 gai/ha, 20 DAT, Table X3): 20%
% activity, solo application (Papaver rhoeas; 125 gai/ha, 20 DAT, Table X3): 75%
% activity, solo application (Papaver rhoeas; 125 gai/ha, 20 DAT, Table X4): 5%
% activity, solo application (Papaver rhoeas; 125 gai/ha, 20 DAT, Table X5): 30%
% activity (Papaver rhoeas; [4]): 25%
% activity (Papaver rhoeas; [3]): 60%
% activity (Papaver rhoeas; 20 DAT, solo Ex. 5 62.5 gai/ha): 70%
% activity (Papaver rhoeas; 20 DAT, solo Ex. 5 125 gai/ha): 65%
% activity (Papaver rhoeas; 20 DAT, solo Ex. 5 125 gai/ha (Table X66)): 65%
% activity (Papaver rhoeas; 21 DAT, solo Ex. 5 125 gai/ha): 60%
% activity (Papaver rhoeas; 21 DAT, solo Ex. 5 250 gai/ha): 80%
% activity (Papaver rhoeas; solo Ex. 5 62.5 gai/ha, 20 DAT): 0%
